This note sets out measurements from patent publication US6949542B2, “Dihydro-benzo[b][1,4]diazepin-2-one derivatives” (Hoffman-La Roche Inc., priority 2002, dated 2005).

The melting point is the temperature, or range, at which the solid turns liquid.

As to `O=C1CC(c2cccc(-c3ccnc(C4CC4)c3)c2)=Nc2cc(OCC(F)(F)F)c(C(F)(F)F)cc2N1` [Example 349, 4-[3-(2-Cyclopropyl-pyridin-4-yl)-phenyl]-7-(2,2,2-trifluoro-ethoxy)-8-trifluoromethyl-1,3-dihydro-benzo[b][1,4]diazepin-2-one], the melting point is 218 °C.

For `Cc1cc(-c2cccc(C3=Nc4cc(C5CC5)c(C(F)(F)F)cc4NC(=O)C3)c2)ccn1` [Example 350, 7-Cyclopropyl-4-[3-(2-methyl-pyridin-4-yl)-phenyl]-8-trifluoromethyl-1,3-dihydro-benzo[b][1,4]diazepin-2-one], the melting point lay in the range of 205 to 211 °C.

`Cc1cc2c(cc1C(F)(F)F)NC(=O)CC(c1cccc(-c3ccnc(C4CCCC4)c3)c1)=N2` [Example 351, 4-[3-(2-Cyclopentyl-pyridin-4-yl)-phenyl]-7-methyl-8-trifluoromethyl-1,3-dihydro-benzo[b][1,4]diazepin-2-one]: the melting point fell in the range of 218 to 219 °C.

Compound `O=C1CC(c2cccc(-c3ccnc(C4CCCC4)c3)c2)=Nc2ccc(C(F)(F)F)cc2N1` [Example 352, 4-[3-(2-Cyclopentyl-pyridin-4-yl)-phenyl]-8-trifluoromethyl-1,3-dihydro-benzo[b][1,4]diazepin-2-one] showed a melting point of 165 to 167 °C.

In turn, `CCOc1cc2c(cc1C(F)(F)F)NC(=O)CC(c1cccc(-c3ccnc(C4CCCC4)c3)c1)=N2` [Example 353, 4-[3-(2-Cyclopentyl-pyridin-4-yl)-phenyl]-7-ethoxy-8-trifluoromethyl-1,3-dihydro-benzo[b][1,4]diazepin-2-one] came in with a melting point of 192 to 193 °C.

In turn, `O=C1CC(c2cccc(-c3ccnc(C4CCCC4)c3)c2)=Nc2cc(OCC(F)(F)F)c(C(F)(F)F)cc2N1` [Example 354, 4-[3-(2-Cyclopentyl-pyridin-4-yl)-phenyl]-7-(2,2,2-trifluoro-ethoxy)-8-trifluoromethyl-1,3-dihydro-benzo[b][1,4]diazepin-2-one] came in with a melting point of 147 to 148 °C.

As to `Cc1cc2c(cc1C(F)(F)F)NC(=O)CC(c1cccc(-c3ccnc(CN(C)CC(C)C)c3)c1)=N2` [Example 360, 4-(3-{2-[(Isobutyl-methyl-amino)-methyl]-pyridin-4-yl}-phenyl)-7-methyl-8-trifluoromethyl-1,3-dihydro-benzo[b][1,4]diazepin-2-one], the melting point was determined as 188 °C.

On to `COCc1cc(-c2cccc(C3=Nc4cc(C)c(C(F)(F)F)cc4NC(=O)C3)c2)ccn1` [Example 361, 4-[3-(2-Methoxymethyl-pyridin-4-yl)-phenyl]-7-methyl-8-trifluoromethyl-1,3-dihydro-benzo[b][1,4]diazepin-2-one], for which the melting point came out at 225 °C.

`Cc1cc(-c2cccc(C3=Nc4cc(N(C)CC(C)C)c(C(F)(F)F)cc4NC(=O)C3)c2)ccn1` [Example 362, 7-(Isobutyl-methyl-amino)-4-[3-(2-methyl-pyridin-4-yl)-phenyl]-8-trifluoromethyl-1,3-dihydro-benzo[b][1,4]diazepin-2-one] had a melting point of 189 °C.

The compound `Cc1cc(-c2cccc(C3=Nc4cc(N(C)C(C)C)c(C(F)(F)F)cc4NC(=O)C3)c2)ccn1` [Example 363, 7-(Isopropyl-methyl-amino)-4-[3-(2-methyl-pyridin-4-yl)-phenyl]-8-trifluoromethyl-1,3-dihydro-benzo[b][1,4]diazepin-2-one] displayed a melting point of 207 °C.

In the case of `Cc1cc(-c2cccc(C3=Nc4cc(N5CCCC5)c(C(F)(F)F)cc4NC(=O)C3)c2)ccn1` [Example 365, 4-[3-(2-Methyl-pyridin-4-yl)-phenyl]-7-pyrrolidin-1-yl-8-trifluoromethyl-1,3-dihydro-benzo[b][1,4]diazepin-2-one], the melting point is 223 °C.

In turn, `CC(C)CN(C)c1cc2c(cc1C(F)(F)F)NC(=O)CC(c1cccc(-c3ccnc(CO)c3)c1)=N2` [Example 366, 4-[3-(2-Hydroxymethyl-pyridin-4-yl)-phenyl]-7-(isobutyl-methyl-amino)-8-trifluoromethyl-1,3-dihydro-benzo[b][1,4]diazepin-2-one] gave a melting point of 130 °C.

In turn, `CC(C)N(C)c1cc2c(cc1Cl)NC(=O)CC(c1cccc(-c3ccnc(CO)c3)c1)=N2` [Example 367, 8-Chloro-4-[3-(2-hydroxymethyl-pyridin-4-yl)-phenyl]-7-(isopropyl-methyl-amino)-1,3-dihydro-benzo[b][1,4]diazepin-2-one] displayed a melting point of 143 °C.

In the case of `CC(C)CN(C)c1cc2c(cc1Cl)NC(=O)CC(c1cccc(-c3ccnc(CO)c3)c1)=N2` [Example 368, 8-Chloro-4-[3-(2-hydroxymethyl-pyridin-4-yl)-phenyl]-7-(isobutyl-methyl-amino)-1,3-dihydro-benzo[b][1,4]diazepin-2-one], the melting point is 161 °C.

Compound `CCCN(C)c1cc2c(cc1C(F)(F)F)NC(=O)CC(c1cccc(-c3ccnc(CO)c3)c1)=N2` [Example 369, 4-[3-(2-Hydroxymethyl-pyridin-4-yl)-phenyl]-7-(methyl-propyl-amino)-8-trifluoromethyl-1,3-dihydro-benzo[b][1,4]diazepin-2-one] came in with a melting point of 97 °C.

In the case of `CC(C)N(C)c1cc2c(cc1C(F)(F)F)NC(=O)CC(c1cccc(-c3ccnc(CO)c3)c1)=N2` [Example 370, 4-[3-(2-Hydroxymethyl-pyridin-4-yl)-phenyl]-7-(isopropyl-methyl-amino)-8-trifluoromethyl-1,3-dihydro-benzo[b][1,4]diazepin-2-one], the melting point worked out at 124 °C.

Regarding `CN(C)c1cc2c(cc1C(F)(F)F)NC(=O)CC(c1cccc(-c3ccnc(CO)c3)c1)=N2` [Example 371, 7-Dimethylamino-4-[3-(2-hydroxymethyl-pyridin-4-yl)-phenyl]-8-trifluoromethyl-1,3-dihydro-benzo[b][1,4]diazepin-2-one], the melting point stood at 223 °C.

As for `Cc1cc2c(cc1Cl)NC(=O)CC(c1cccc(-c3ccnc(CNC4CC4)c3)c1)=N2` [Example 378, 8-Chloro-4-[3-(2-cyclopropylaminomethyl-pyridin-4-yl)-phenyl]-7-methyl-1,3-dihydro-benzo[b][1,4]diazepin-2-one], the melting point worked out at 171 °C.

The compound `O=C1CC(c2cccc(-c3ccnc(CNC4CC4)c3)c2)=Nc2cc(OCC(F)(F)F)c(C(F)(F)F)cc2N1` [Example 379, 4-[3-(2-Cyclopropylaminomethyl-pyridin-4-yl)-phenyl]-7-(2,2,2-trifluoro-ethoxy)-8-trifluoromethyl-1,3-dihydro-benzo[b][1,4]diazepin-2-one] came in with a melting point of 150 °C.

Take `O=C1CC(c2cccc(-c3ccnc(CN4CCCC4)c3)c2)=Nc2cc(OCC(F)(F)F)c(C(F)(F)F)cc2N1` [Example 380, 4-[3-(2-Pyrrolidin-1-ylmethyl-pyridin-4-yl)-phenyl]-7-(2,2,2-trifluoro-ethoxy)-8-trifluoromethyl-1,3-dihydro-benzo[b][1,4]diazepin-2-one]: the melting point worked out at 182 °C.

For `O=C1CC(c2cccc(-c3ccnc(CN4CCC4)c3)c2)=Nc2cc(OCC(F)(F)F)c(C(F)(F)F)cc2N1` [Example 381, 4-[3-(2-Azetidin-1-ylmethyl-pyridin-4-yl)-phenyl]-7-(2,2,2-trifluoro-ethoxy)-8-trifluoromethyl-1,3-dihydro-benzo[b][1,4]diazepin-2-one], the melting point amounted to 190 °C.

Compound `CCCN(C)Cc1cc(-c2cccc(C3=Nc4cc(OCC(F)(F)F)c(C(F)(F)F)cc4NC(=O)C3)c2)ccn1` [Example 382, 4-(3-{2-[(Methyl-propyl-amino)-methyl]-pyridin-4-yl}-phenyl)-7-(2,2,2-trifluoro-ethoxy)-8-trifluoromethyl-1,3-dihydro-benzo[b][1,4]diazepin-2-one] had a melting point of 155 °C.

Turning to `Cc1cc(-c2cccc(C3=Nc4cc(N5CCOCC5)c(C(F)(F)F)cc4NC(=O)C3)c2)cc(C)n1` [Example 384, 4-[3-(2,6-Dimethyl-pyridin-4-yl)-phenyl]-7-morpholin-4-yl-8-trifluoromethyl-1,3-dihydro-benzo[b][1,4]diazepin-2-one], the melting point lay within 251 to 252 °C.

Regarding `CCOc1cc2c(cc1C(F)(F)F)NC(=O)CC(c1cccc(-c3ccnc(N4CCOCC4)c3)c1)=N2` [Example 385, 7-Ethoxy-4-[3-(2-morpholin-4-yl-pyridin-4-yl)-phenyl]-8-trifluoromethyl-1,3-dihydro-benzo[b][1,4]diazepin-2-one], the melting point was in the range of 199 to 200 °C.

`O=C1CC(c2cccc(-c3ccnc(N4CCOCC4)c3)c2)=Nc2cc(OCC(F)(F)F)c(C(F)(F)F)cc2N1` [Example 386, 4-[3-(2-Morpholin-4-yl-pyridin-4-yl)-phenyl]-7-(2,2,2-trifluoro-ethoxy)-8-trifluoromethyl-1,3-dihydro-benzo[b][1,4]diazepin-2-one] displayed a melting point of 189 to 190 °C.

`O=C1CC(c2cccc(-c3ccnc(N4CCCC4)c3)c2)=Nc2ccc(C(F)(F)F)cc2N1` [Example 388, 4-[3-(2-Pyrrolidin-1-yl-pyridin-4-yl)-phenyl]-8-trifluoromethyl-1,3-dihydro-benzo[b][1,4]diazepin-2-one]: the melting point turned out to be 224 °C.

Compound `Cc1cc2c(cc1C(F)(F)F)NC(=O)CC(c1cccc(-c3ccnc(N4CCCC4)c3)c1)=N2` [Example 389, 7-Methyl-4-[3-(2-pyrrolidin-1-yl-pyridin-4-yl)-phenyl]-8-trifluoromethyl-1,3-dihydro-benzo[b][1,4]diazepin-2-one] returned a melting point of 190 °C.

For `CCOc1cc2c(cc1C(F)(F)F)NC(=O)CC(c1cccc(-c3ccnc(N4CCCC4)c3)c1)=N2` [Example 390, 7-Ethoxy-4-[3-(2-pyrrolidin-1-yl-pyridin-4-yl)-phenyl]-8-trifluoromethyl-1,3-dihydro-benzo[b][1,4]diazepin-2-one], the melting point worked out at 215 °C.

In turn, `CCOc1cc2c(cc1C(F)(F)F)NC(=O)CC(c1ccnc(-c3cccnc3)c1)=N2` [Example 393, 4-[2,3′]Bipyridinyl-4-yl-7-ethoxy-8-trifluoromethyl-1,3-dihydro-benzo[b][1,4]diazepin-2-one] registered a melting point of 249 °C.

`O=C1CC(c2ccnc(-c3cccnc3)c2)=Nc2cc(OCC(F)(F)F)c(C(F)(F)F)cc2N1` [Example 394, 4-[2,3′]Bipyridinyl-4-yl-7-(2,2,2-trifluoro-ethoxy)-8-trifluoromethyl-1,3-dihydro-benzo[b][1,4]diazepin-2-one] had a melting point of 197 °C.
